Assay results taken from PubChem BioAssay (NCI).
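GI50 marks 50% less growth. TGI is the concentration that stops growth completely.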

Key:
Assay in all cases: NCI anticancer screen, dose series, 384-well format
[1] = system: BT-549 breast
[2] = system: LOX IMVI melanoma
[3] = system: M14 melanoma
[4] = system: NCI-H322M lung
[5] = system: NCI/ADR-RES ovarian
[6] = system: OVCAR-3 ovarian
[7] = system: SF-295 CNS
[8] = system: SF-539 CNS
[9] = system: SK-MEL-5 melanoma
[10] = system: SNB-19 CNS
[11] = system: TK-10 renal
[12] = system: UACC-257 melanoma
[13] = system: UACC-62 melanoma

For `NC(=O)c1nc(-c2c(F)cccc2Cl)oc1Nc1ccc(C(=O)N2CCOCC2)cc1`, the GI50 [1] was 2000 nM, the TGI [1] was 5.84 µM and the GI50 [2] was 869 nM. The TGI [2] was 2390 nM, the GI50 [3] was 17.3 µM and the TGI [3] was > 47.5 µM. The GI50 [4] was 6.5 µM, the TGI [4] was 23.6 µM and the GI50 [5] was 2460 nM. It also gave a TGI [5] of 7.79 µM, a GI50 [6] of 1600 nM and a TGI [6] of 7.65 µM. The GI50 [7] was 2950 nM, the TGI [7] was > 45.9 µM and the GI50 [8] was 1450 nM. The TGI [8] was 7.64 µM, the GI50 [9] was 13.6 µM and the TGI [9] was 34.7 µM. For the same molecule, the GI50 [10] was 3.46 µM, the TGI [10] was 24.9 µM and the GI50 [11] was 2580 nM. The TGI [11] was 8.79 µM, the GI50 [12] was 23.1 µM and the TGI [12] was > 54.8 µM. For the same molecule, the GI50 [13] was 5.96 µM and the TGI [13] was 20.4 µM.
